Test results reported in patent US11077126B2 (priority 2017, dated 2021).

Assays:
[1] = tested on: transplanted tumor of human breast cancer MDA-MB-231 cells; assay: Human breast cancer (MDA-MB-231) in nude mice model; details: MDA-MB-231 nude mice; 30 mg/kg i.g. 30 d
Experimental: (§1) Then cell concentration was adjusted to 1×10^7/ml with matrigel, and then each nude mouse was inoculated subcutaneously with 0.2 ml of cells at its right armpit and recorded as the first day of inoculation. […] Each group was continuously administered intragastrically for 30 days with a dose of 20 ml/kg. The mice were sacrificed the next day after drug withdrawal and the indicators were tested. The long diameter and short diameter of the tumor, and the body weight of each mouse were recorded every 3 days from drug administration to nude mouse sacrifice.
(§2) The body weight of the nude mice and the long diameter (a) and short diameter (b) of the transplanted tumor were measured every 3 days, and the tumor volume (v), relative tumor volume (RTV) and relative tumor proliferation rate (T/C) are calculated respectively according to the following formulas, wherein V=a×b^2/2; RTV=V/V0 (V0 is the tumor volume before administration, V is the tumor volume before sacrifice), and T/C (%)=treatment group RTV/model control group RTV×100%.
(§3) Each mouse was weighed and sacrificed. After the tumor was completely stripped off from the body of the mouse, the non-tumor tissues such as blood stains and fat were removed to weigh the tumor and calculate the tumor growth inhibition rate. The average tumor weight of each group of mice is used as an indicator of efficacy. Tumor growth inhibition rate (%)=(1−the average tumor weight of the treatment group/the average tumor weight of the model group)×100%.

[2] = tested on: transplanted tumor of human large cell lung cancer H1299 cells; assay: Human large cell lung cancer (H1299) in nude mice model; details: 30 mg/kg i.g. 30 d
Experimental: Then cell concentration was adjusted to 1×10^7/ml with matrigel, then each nude mouse was inoculated subcutaneously with 0.2 ml of cells at its right armpit and recorded as the first day of inoculation. […] Each group was continuously administered intragastrically for 30 days with a dose of 20 ml/kg. The mice were sacrificed the next day after drug withdrawal and the indicators were tested. The long diameter and short diameter of the tumor, and the body weight of each mouse were recorded every 3 days from drug administration to nude mouse sacrifice.
as §2, §3

[3] = tested on: transplanted tumor of human esophageal cancer TE-1 cells; assay: Human esophageal cancer in nude mice model; details: 30 mg/kg
Experimental: as §1, §2, §3

[4] = tested on: transplanted tumor of human hepatocarcinoma HepG-2 cells; assay: Human hepatocarcinoma in nude mice model; details: HepG-2 nude mice; 30 mg/kg i.g. 30 d
Experimental: as §1, §2, §3

[5] = tested on: transplanted tumor of human pancreatic cancer PANC-1 cells; assay: Human pancreatic cancer in nude mice model
Experimental: as §1
The body weight of the nude mice and the long diameter (a) and short diameter (b) of the transplanted tumor were measured every 3 days, and the tumor volume (v), relative tumor volume (RTV) and relative tumor proliferation rate (T/C) are calculated respectively according to the following formulas, wherein V=a×b^2/2; RTV=V/V0 (V0 is the tumor volume before administration, V is the tumor volume before sacrifice), and T/C (%)=treatment group RTV/model control group RTV×100%
as §3

[6] = tested on: spleen lymphocytes (ConA, LPS stimulation); assay: Spleen lymphocyte proliferation activity of Lewis lung cancer tumor-bearing mice; type: in vivo, C57BL/6 mouse
Experimental: The serum-free RPMI 1640 medium was placed in a dish, and then the dish was placed on ice. The spleen was aseptically taken and gently ground with a sterile glass slide to prepare a single cell suspension. The single cell suspension was filtered with a double-layer sterile gauze, washed twice with serum-free RPMI 1640 medium, and centrifuged at 1,500 rpm for 5 min to remove the obtained supernatant. 2 mL of red blood cell lysate was added to the treated suspension, the mixture was allowed to stand for 2 min, and then 8 mL of RPMI 1640 medium was added, centrifuging was performed at 1,500 rpm for 5 min to remove the obtained supernatant, and then washing was performed twice with the RPMI 1640 medium. Trypan blue staining was performed to count the number of live cells, and the cell viability was more than 95%. A single cell suspension was prepared by using a RPMI 1640 medium containing 10% fetal bovine serum.
The spleen cell suspension was taken, and the cell density was adjusted to 1×10^7/mL. Each mouse was set with: A. a control well: 100 μL of RPMI 1640 medium was added; B. a concanavalin A (ConA) stimulation well: 100 μL (10 mg/L) of concanavalin A (ConA) solution was added; and C. a bacterial endotoxin (LPS) stimulating well: 100 μL (20 mg/L) of bacterial endotoxin (LPS) solution was added. The above cells were added to a 96-well plate, and then 100 μL of spleen cell suspension was added to each of the above wells. After the culture plate was transferred to a saturated humidity condition with a volume fraction of 5% CO2 at 37° C. for incubation for 72 h, 10 μL of MTT solution (5 g/L) was added to each well, and incubation was continued to be performed for 4 hours under the same conditions, then the culture was terminated. […] The Optical Density (OD) of each well was measured at 570 nm, and the lymphocyte proliferation rate was calculated. Lymphocyte proliferation rate (%)=[(T−C)/C]×100%, wherein T is the Optical Density of the stimulation well, and C is the Optical Density of the control well.

[7] = PANC-1 nude mice, 30 mg/kg i.g. 30 d
[8] = 26 mg/kg, positive drug group, n = 6

O=P1(N(CCCl)CCCl)NCCCO1 (stereo not shown) [Cyclophosphamide]
Body Weight (g)(d1) [1]: 21.28 ± 0.95 g | Body Weight (g)(d30) [1]: 19.79 ± 1.03 g | Inhibition Rate (%) [1]: 79.75% | Relative Tumor Proliferation Rate(T/C) [1]: 28.59% | Relative Tumor Volume (RTV) [1]: 3.46 ± 0.70 | Tumor Volume (mm3) (d1) [1]: 169.73 ± 11.79 mm3 | Tumor Volume (mm3) (d30) [1]: 587.27 ± 30.47 mm3 | Tumor Weight [1]: 0.27 ± 0.11 g | Body Weight (g)(d1) [2]: 20.92 ± 0.59 g | Body Weight (g)(d30) [2]: 18.82 ± 0.52 g | Inhibition Rate (%) [2]: 68.59% | Relative Tumor Proliferation Rate(T/C) [2]: 31.47% | Relative Tumor Volume (RTV) [2]: 6.13 ± 0.82 | Tumor Volume (mm3) (d1) [2]: 115.38 ± 13.82 mm3 | Tumor Volume (mm3) (d30) [2]: 707.28 ± 26.96 mm3 | Tumor Weight [2]: 0.56 ± 0.11 g | Relative Tumor Proliferation Rate(T/C) [3]: 52.01% | Relative Tumor Volume (RTV) [3]: 9.05 ± 2.58 | Tumor Weight [3]: 0.66 ± 0.28 g | Inhibition Rate (%) ([3]; by tumor weight): 72.12% | Body Weight (g)(d1) ([3]; d1): 22.78 ± 1.35 g | Tumor Volume (mm3) (d1) ([3]; d1): 92.02 ± 7.06 mm3 | Body Weight (g)(d30) ([3]; d30): 21.32 ± 1.63 g | Tumor Volume (mm3) (d30) ([3]; d30): 830.30 ± 34.31 mm3 | Body Weight (g)(d1) [4]: 22.67 ± 1.54 g | Body Weight (g)(d30) [4]: 21.52 ± 1.99 g | Inhibition Rate (%) [4]: 63.48% | Relative Tumor Proliferation Rate(T/C) [4]: 32.55% | Relative Tumor Volume (RTV) [4]: 4.27 ± 0.26 | Tumor Volume (mm3) (d1) [4]: 146.12 ± 2.30 mm3 | Tumor Volume (mm3) (d30) [4]: 623.67 ± 28.44 mm3 | Tumor Weight [4]: 0.46 ± 0.07 g | Relative Tumor Proliferation Rate(T/C) ([5]; 30 mg/kg): 54.55% | Relative Tumor Volume (RTV) ([5]; 30 mg/kg): 5.54 ± 0.72 | Tumor Volume (mm3) (d1) ([5]; 30 mg/kg, d1): 93.73 ± 8.27 mm3 | Tumor Volume (mm3) (d30) ([5]; 30 mg/kg, d30): 515.49 ± 32.36 mm3 | Body Weight (g)(d1) [5, 7]: 21.89 ± 1.88 g | Body Weight (g)(d30) [5, 7]: 19.92 ± 1.68 g | Inhibition Rate (%) [5, 7]: 80.43% | Tumor Weight [5, 7]: 0.73 ± 0.09 g | B Lymphocyte Proliferation Activity (%) [6, 8]: 11.63 ± 4.68 % | T Lymphocyte Proliferation Activity (%) [6, 8]: 13.24 ± 3.72 % | lymphocyte activity (proliferation) ([6]; Lewis lung cancer tumor-bearing mice, cyclophosphamide, P<0.05): significantly inhibited
